What all share (assay): JAK activity, Invitrogen SelectScreen Biochemical Kinase Profiling, Z'-LYTE
Holding throughout (conditions): ATP concentration at Km

For experiment [1], the target named is JAK1 (Homo sapiens, UniProt P23458). As to the method:
(§1) JAK activity was determined using Invitrogen's SelectScreen® Biochemical Kinase Profiling Service using the Z'-LYTE Screening Protocol and Assay Conditions (ATP concentration at Km).

The target of experiment [2] is JAK2 (Homo sapiens, UniProt O60674). How it is done:
as §1

Experiment [3] has as its target T1, JAK3 (Homo sapiens, UniProt P52333).
T1 sequence (P52333 1-1124): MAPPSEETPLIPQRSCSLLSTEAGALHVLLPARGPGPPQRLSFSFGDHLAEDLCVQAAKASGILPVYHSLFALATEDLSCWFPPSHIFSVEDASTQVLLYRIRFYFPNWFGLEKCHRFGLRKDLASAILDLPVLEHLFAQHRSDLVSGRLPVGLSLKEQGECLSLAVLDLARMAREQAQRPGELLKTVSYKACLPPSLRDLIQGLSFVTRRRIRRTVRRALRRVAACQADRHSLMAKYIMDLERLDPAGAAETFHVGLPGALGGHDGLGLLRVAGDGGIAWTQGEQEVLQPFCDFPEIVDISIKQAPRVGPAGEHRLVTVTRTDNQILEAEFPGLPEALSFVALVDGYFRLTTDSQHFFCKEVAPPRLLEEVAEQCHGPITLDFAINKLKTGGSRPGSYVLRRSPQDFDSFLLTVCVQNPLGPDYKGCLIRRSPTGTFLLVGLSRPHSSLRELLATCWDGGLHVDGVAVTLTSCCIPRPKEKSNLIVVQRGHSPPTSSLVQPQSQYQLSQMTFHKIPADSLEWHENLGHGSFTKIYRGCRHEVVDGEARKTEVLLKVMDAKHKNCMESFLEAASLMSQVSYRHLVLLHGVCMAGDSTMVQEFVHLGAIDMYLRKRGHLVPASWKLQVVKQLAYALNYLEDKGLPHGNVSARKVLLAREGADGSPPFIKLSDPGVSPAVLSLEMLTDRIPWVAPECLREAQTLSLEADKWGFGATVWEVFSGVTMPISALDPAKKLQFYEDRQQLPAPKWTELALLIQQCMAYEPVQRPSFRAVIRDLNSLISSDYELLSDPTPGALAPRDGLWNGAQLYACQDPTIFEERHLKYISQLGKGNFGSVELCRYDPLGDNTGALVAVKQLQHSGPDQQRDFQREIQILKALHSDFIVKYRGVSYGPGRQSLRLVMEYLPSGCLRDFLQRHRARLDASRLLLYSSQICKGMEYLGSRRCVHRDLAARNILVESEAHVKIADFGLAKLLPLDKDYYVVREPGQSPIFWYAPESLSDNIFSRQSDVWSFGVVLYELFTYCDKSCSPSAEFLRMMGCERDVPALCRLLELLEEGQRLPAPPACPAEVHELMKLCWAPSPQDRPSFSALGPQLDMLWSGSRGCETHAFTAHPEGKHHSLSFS
How it is done: as §1

Chain of JAK2 (O60674 whole entry): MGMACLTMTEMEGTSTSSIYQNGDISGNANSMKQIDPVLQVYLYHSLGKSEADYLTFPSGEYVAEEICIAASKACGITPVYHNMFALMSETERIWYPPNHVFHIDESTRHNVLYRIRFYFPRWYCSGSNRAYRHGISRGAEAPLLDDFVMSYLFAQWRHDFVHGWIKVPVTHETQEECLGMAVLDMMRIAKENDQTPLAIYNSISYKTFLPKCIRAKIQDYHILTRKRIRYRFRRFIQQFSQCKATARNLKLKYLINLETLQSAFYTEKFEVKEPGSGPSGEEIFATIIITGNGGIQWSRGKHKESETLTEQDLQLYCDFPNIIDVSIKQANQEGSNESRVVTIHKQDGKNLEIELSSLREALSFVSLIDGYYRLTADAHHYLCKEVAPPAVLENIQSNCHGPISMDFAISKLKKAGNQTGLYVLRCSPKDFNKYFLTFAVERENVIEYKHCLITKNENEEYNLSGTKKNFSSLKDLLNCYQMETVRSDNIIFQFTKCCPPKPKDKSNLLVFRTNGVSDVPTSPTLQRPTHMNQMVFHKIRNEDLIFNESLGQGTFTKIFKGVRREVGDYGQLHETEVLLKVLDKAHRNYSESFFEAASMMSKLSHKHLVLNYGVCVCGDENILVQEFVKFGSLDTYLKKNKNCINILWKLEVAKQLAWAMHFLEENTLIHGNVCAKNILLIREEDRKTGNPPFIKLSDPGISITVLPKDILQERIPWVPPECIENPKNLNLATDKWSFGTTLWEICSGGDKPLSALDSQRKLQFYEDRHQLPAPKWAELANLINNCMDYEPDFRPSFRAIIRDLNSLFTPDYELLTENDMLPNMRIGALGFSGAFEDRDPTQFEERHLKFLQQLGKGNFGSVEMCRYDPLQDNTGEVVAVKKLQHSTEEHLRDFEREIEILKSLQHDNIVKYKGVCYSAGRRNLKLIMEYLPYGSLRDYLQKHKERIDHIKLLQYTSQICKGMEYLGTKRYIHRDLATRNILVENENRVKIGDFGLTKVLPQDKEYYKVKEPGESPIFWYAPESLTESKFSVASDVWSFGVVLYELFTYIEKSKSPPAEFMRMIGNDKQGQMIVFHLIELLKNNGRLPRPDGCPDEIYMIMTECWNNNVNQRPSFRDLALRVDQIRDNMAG
Chain of JAK1 (P23458 whole entry): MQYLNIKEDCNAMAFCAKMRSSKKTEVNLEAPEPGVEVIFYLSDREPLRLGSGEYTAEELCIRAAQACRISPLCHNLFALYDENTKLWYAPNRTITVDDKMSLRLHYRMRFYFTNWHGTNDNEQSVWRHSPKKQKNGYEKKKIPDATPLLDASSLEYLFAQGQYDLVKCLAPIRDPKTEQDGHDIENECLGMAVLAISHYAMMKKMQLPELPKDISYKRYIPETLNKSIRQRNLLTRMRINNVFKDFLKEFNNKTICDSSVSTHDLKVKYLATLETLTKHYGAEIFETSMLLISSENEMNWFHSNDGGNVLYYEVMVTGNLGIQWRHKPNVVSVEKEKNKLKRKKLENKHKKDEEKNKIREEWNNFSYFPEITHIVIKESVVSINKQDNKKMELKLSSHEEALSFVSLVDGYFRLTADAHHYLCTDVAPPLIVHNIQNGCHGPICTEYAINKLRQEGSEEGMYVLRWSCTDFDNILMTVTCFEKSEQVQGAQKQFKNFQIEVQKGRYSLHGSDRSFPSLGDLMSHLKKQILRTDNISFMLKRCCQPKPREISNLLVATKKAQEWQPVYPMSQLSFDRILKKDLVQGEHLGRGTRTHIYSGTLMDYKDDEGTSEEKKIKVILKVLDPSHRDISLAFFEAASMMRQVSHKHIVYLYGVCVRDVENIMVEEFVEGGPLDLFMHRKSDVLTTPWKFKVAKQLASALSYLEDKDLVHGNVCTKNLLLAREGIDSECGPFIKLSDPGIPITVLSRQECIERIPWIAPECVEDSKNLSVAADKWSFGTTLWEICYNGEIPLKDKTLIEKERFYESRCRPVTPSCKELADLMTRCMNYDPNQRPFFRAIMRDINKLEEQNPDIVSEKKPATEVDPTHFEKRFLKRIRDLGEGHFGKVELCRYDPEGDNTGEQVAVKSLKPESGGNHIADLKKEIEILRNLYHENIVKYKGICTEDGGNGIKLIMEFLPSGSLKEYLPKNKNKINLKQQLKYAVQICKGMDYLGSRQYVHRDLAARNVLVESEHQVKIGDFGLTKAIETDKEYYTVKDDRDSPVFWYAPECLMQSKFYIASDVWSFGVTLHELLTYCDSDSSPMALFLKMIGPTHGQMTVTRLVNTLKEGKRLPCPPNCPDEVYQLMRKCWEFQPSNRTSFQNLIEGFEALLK

Consider `N#CCC(C1CCCC1)n1cc2c(n1)C(=O)c1c[nH]c3nccc-2c13` (stereo not drawn) [Example 1, 3-cyclopentyl-3-{7-oxo-4,5,10,12-tetraazatetracyclo[6.6.1.0^2,6.0^11,15]pentadeca-1(15),2,5,8,11,13-hexaen-4-yl}propanenitrile], for which the concentration for half-maximal inhibition (IC50) in experiment [1] is 10 to 100 nM; in experiment [2], less than 10 nM; in experiment [3], greater than 100 nM.

In the case of `N#CC[C@H](C1CCCC1)n1cc2c(n1)C(=O)c1c[nH]c3nccc-2c13` [Example 4, (3R)-3-cyclopentyl-3-{7-oxo-4,5,10,12-tetraazatetracyclo[6.6.1.0^2,6.0^11,15]pentadeca-1(15),2,5,8,11,13-hexaen-4-yl}propanenitrile], the figures for the IC50 in experiment [1], in experiment [2] and in experiment [3] were 10 to 100 nM, less than 10 nM and greater than 100 nM, respectively.

For `N#CCC(C1CCCC1)n1ncc2c1C(=O)c1c[nH]c3nccc-2c13` (stereo not drawn) [Example 2, 3-cyclopentyl-3-{7-oxo-4,5,10,12-tetraazatetracyclo[6.6.1.0^2,6.0^11,15]pentadeca-1(15),2(6),3,8,11,13-hexaen-5-yl}propanenitrile], the IC50 was greater than 100 nM in experiment [1], 10 to 100 nM in experiment [2] and greater than 100 nM in experiment [3].

The values above are taken from US9440977B2, “Compositions, uses and methods for their preparation” (priority 2013, dated 2016).
